# Assay: pH of aqueous solution of the crystalline salt
# Format: physicochemical
# Conditions: 14.00 mg crystalline salt in 140 microliters of water
# Description: Gabapentin (0.55857 g) and ethanedisulfonic acid (0.62940 g) were transferred into a 20 mL scintillation vial. Water (1.5 mL) was added and the mixture was heated to 85 deg. C. to dissolve all of the solids. The solution was filtered through a 0.2 micron filter into a new 20 mL scintillation vial. The vial was capped and placed in the refrigerator (2-4 deg. C.) for 2 hours. The resulting crystals were collected by vacuum filtration (345.83 mg) and analyzed by PXRD. Upon analysis, the crystals were determined to be gabapentin ethanedisulfonic acid salt. A small amount of the crystalline salt (14.00 mg) was weighted into a 3 mL vial and 140 microliters of water was added. The pH of the resulting solution was determined to be 1.2. […] The salt can be characterized by any one, any two, any three, any four, any five, or any six or more of the peaks in FIG. 13 including, but not limited to, 6.0, 11.51, 15.11, 16.17, 17.31, 17.85, 19.73, 20.19, 22.21, 24.63, 26.73, and 28.47 degrees 2-theta.
substance,measurement,value
gabapentin ethanedisulfonic acid salt,pH of the resulting solution,1.2
